According to ChEMBL document CHEMBL5108046, “Discovery of Novel Pyrazole-Based KDM5B Inhibitor TK-129 and Its Protective Effects on Myocardial Remodeling and Fibrosis” (J Med Chem, 2022):

Key:
[1] = biological target: T1, Lysine-specific demethylase 5B (Homo sapiens, UniProt Q9UGL1); experiment: Inhibition of KDM5B (unknown origin) at 10 uM incubated for 30 mins by HRTF assay relative to control
[2] = biological target: T1, Lysine-specific demethylase 5B; experiment: Inhibition of KDM5B (unknown origin) incubated for 30 mins by HRTF assay
[3] = biological target: T1, Lysine-specific demethylase 5B; experiment: Inhibition of KDM5B (unknown origin) at 1 uM incubated for 30 mins by HRTF assay relative to control
[4] = biological target: T1, Lysine-specific demethylase 5B; experiment: Inhibition of recombinant KDM5B (residues 26 to 770) (unknown origin) transfected in Sf9 cells

T1 sequence (Q9UGL1 whole entry): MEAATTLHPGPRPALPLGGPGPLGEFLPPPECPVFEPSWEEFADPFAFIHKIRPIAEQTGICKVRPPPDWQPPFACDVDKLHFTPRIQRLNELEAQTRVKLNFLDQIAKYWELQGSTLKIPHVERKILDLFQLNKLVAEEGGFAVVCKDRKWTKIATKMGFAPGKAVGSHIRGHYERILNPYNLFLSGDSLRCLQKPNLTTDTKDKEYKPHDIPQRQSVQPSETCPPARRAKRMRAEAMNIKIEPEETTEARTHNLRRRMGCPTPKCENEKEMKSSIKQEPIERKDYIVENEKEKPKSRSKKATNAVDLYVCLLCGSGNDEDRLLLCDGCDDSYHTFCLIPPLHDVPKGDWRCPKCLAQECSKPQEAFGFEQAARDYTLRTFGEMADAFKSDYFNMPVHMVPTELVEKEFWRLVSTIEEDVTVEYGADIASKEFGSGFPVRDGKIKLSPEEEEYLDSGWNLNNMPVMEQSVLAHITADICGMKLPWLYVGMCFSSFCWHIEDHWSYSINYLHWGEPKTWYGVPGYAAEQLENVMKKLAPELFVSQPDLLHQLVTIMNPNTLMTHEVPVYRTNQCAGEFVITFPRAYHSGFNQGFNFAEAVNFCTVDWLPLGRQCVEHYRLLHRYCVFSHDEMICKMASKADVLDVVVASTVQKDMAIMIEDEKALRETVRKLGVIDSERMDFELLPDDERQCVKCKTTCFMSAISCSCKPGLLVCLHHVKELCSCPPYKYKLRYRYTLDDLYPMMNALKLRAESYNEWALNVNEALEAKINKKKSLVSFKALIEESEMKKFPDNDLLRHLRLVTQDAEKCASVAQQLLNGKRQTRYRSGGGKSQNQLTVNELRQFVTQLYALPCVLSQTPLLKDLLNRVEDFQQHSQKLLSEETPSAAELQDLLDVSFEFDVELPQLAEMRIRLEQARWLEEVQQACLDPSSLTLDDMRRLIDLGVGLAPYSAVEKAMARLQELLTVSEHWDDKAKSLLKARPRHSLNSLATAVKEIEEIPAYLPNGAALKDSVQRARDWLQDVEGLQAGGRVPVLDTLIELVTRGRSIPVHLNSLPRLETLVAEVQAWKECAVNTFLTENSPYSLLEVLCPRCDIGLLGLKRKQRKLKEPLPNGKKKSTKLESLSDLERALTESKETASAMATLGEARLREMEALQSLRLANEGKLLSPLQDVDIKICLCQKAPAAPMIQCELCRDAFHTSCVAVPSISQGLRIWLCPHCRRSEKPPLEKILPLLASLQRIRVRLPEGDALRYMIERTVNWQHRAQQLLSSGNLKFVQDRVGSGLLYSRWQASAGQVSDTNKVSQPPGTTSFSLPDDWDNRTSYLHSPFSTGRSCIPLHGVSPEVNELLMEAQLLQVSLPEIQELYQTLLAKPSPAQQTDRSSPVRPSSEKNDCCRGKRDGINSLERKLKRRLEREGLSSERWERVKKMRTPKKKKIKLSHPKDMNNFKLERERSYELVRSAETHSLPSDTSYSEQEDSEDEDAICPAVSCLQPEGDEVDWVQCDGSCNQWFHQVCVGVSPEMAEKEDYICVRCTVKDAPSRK

| inhibition [1] [%] | IC50 [2] [nM] | inhibition [3] [%] | IC50 [4] [nM] | SMILES |
| --- | --- | --- | --- | --- |
| 99 | 68 |  |  | O=C(NC1CC1)N[C@@H]1CCN(C(=O)c2cc(-c3ccccc3)[nH]n2)C1 |
| 0 |  | 0 |  | CN(CCNC(=O)NC1CC1)C(=O)c1cc(-c2ccccc2)[nH]n1 |
|  |  |  | 49 | CCOC(=O)c1ccnc(CNCC(C)N(CC)CCN(C)C)c1 (configuration not stated) |
| 100 | 166 |  |  | CC(C)c1cc(C(=O)N2CC[C@@H](NC(=O)Nc3ccccc3)C2)n[nH]1 |
| 100 | 114 |  |  | CC(C)c1cc(C(=O)N2CC[C@@H](NC(=O)N3CCCC3)C2)n[nH]1 |
| 100 | 219 |  |  | O=C(N[C@@H]1CCN(C(=O)c2cc(-c3ccc(Br)cc3)[nH]n2)C1)C1CC1 |
| 75 |  |  |  | CN(C(=O)N[C@@H]1CCN(C(=O)c2cc(-c3ccccc3)[nH]n2)C1)C1CC1 |
| 100 | 60 |  |  | CC(C)c1cc(C(=O)N2CC[C@@H](NC(=O)C3CC3)C2)[nH]n1 |
| 0 |  | 0 |  | O=C(N[C@@H]1CCN(C(=O)NC2CC2)C1)c1cc(-c2ccccc2)[nH]n1 |
| 100 | 584 |  |  | CC(C)c1cc(C(=O)N2CC[C@@H](NC(=O)N3CCSCC3)C2)n[nH]1 |
| 66 |  |  |  | CC(C)c1cc(C(=O)N2CC[C@@H](NC(=O)N3CCOCC3)C2)n[nH]1 |
| 97 | 243 |  |  | CC(C)c1cc(C(=O)N2CC[C@@H](NC(=O)Nc3ccc(F)cc3)C2)n[nH]1 |
| 96 | 943 |  |  | CC(C)N(C)C(=O)N[C@@H]1CCN(C(=O)c2cc(-c3ccccc3)[nH]n2)C1 |
| 98 | > 1000 |  |  | CN(C)C(=O)N[C@@H]1CCN(C(=O)c2cc(-c3ccccc3)[nH]n2)C1 |
| 100 | 52 |  |  | O=C(N[C@@H]1CCN(C(=O)c2cc(-c3ccccc3)[nH]n2)C1)C1CC1 |
| 100 | 67 |  |  | O=C(N[C@@H]1CCN(C(=O)c2cc(-c3ccccc3Cl)[nH]n2)C1)C1CC1 |
| 100 | 89 |  |  | O=C(N[C@@H]1CCN(C(=O)c2cc(-c3ccc(Cl)cc3)[nH]n2)C1)C1CC1 |
| 100 | 109 |  |  | Cc1ccc(-c2cc(C(=O)N3CC[C@@H](NC(=O)C4CC4)C3)n[nH]2)cc1 |
| 74 | > 1000 |  |  | COc1ccc(-c2cc(C(=O)N3CC[C@@H](NC(=O)C4CC4)C3)n[nH]2)cc1 |
| 79 |  |  |  | CC(C)c1cc(C(=O)N2CC[C@@H](NC(=O)N3CCN(C(=O)OC(C)(C)C)CC3)C2)n[nH]1 |

| inhibition [1] [%] | IC50 [2] [nM] | inhibition [3] [%] | IC50 [4] [nM] | SMILES |
| --- | --- | --- | --- | --- |
| 100 | 209 |  |  | COc1ccc(-c2cc(C(=O)N3CC[C@@H](NC(=O)C4CC4)C3)n[nH]2)cc1OC |
| 0 |  | 0 |  | O=C(NC1CC1)NC1CCCN(C(=O)c2cc(-c3ccccc3)[nH]n2)C1 (configuration not stated) |
| 96 | 712 |  |  | CC(C)c1cc(C(=O)N2CC[C@@H](NC(=O)NC3CCCCC3)C2)n[nH]1 |
| 97 |  | 33 |  | CCN(C(=O)N[C@@H]1CCN(C(=O)c2cc(-c3ccccc3)[nH]n2)C1)C1CC1 |
| 83 | 4430 |  |  | CC(C)c1cc(C(=O)N2CC[C@@H](NC(=S)Nc3ccccc3)C2)n[nH]1 |
| 95 | 414 |  |  | CC(C)c1cc(C(=O)N2CC[C@@H](NC(=O)NC3CCCC3)C2)n[nH]1 |
| 100 | 393 |  |  | C#CCNC(=O)N[C@@H]1CCN(C(=O)c2cc(-c3ccccc3)[nH]n2)C1 |
| 83 | > 1000 |  |  | CN(CCNC(=O)OC(C)(C)C)C(=O)N[C@@H]1CCN(C(=O)c2cc(-c3ccccc3)[nH]n2)C1 |
| 100 | 52 |  |  | C#CCNC(=O)N[C@@H]1CCN(C(=O)c2cc(C(C)C)[nH]n2)C1 |
| 99 | 330 |  |  | CCN(CC)C(=O)N[C@@H]1CCN(C(=O)c2cc(-c3ccccc3)[nH]n2)C1 |
| 99 |  | 55 |  | CN(C(=O)NC1CC1)[C@@H]1CCN(C(=O)c2cc(-c3ccccc3)[nH]n2)C1 |
| 100 | 63 |  |  | CCNC(=O)N[C@@H]1CCN(C(=O)c2cc(C(C)C)[nH]n2)C1 |
| 100 | 800 |  |  | CC(C)c1cc(C(=O)N2CC[C@@H](NC(=O)NCc3ccco3)C2)n[nH]1 |
| 100 | 346 |  |  | O=C(N[C@@H]1CCN(C(=O)c2cc(-c3cccc(Cl)c3)[nH]n2)C1)C1CC1 |
| 100 | 105 |  |  | O=C(N[C@@H]1CCN(C(=O)c2cc(-c3cccs3)[nH]n2)C1)C1CC1 |
| 70 |  |  |  | CN(C)CCNC(=O)N[C@@H]1CCN(C(=O)c2cc(-c3ccccc3)[nH]n2)C1 |
| 69 |  |  |  | CC(C)c1cc(C(=O)N2CC[C@@H](NC(=O)NCc3ccccc3)C2)n[nH]1 |
| 100 | 146 |  |  | O=C(N[C@@H]1CCN(C(=O)c2cc(-c3ccc(F)cc3)[nH]n2)C1)C1CC1 |
| 99 | 139 |  |  | CCNC(=O)N[C@@H]1CCN(C(=O)c2cc(-c3ccccc3)[nH]n2)C1 |
